The values that follow come from ChEMBL document CHEMBL1201862, “PubChem BioAssay data set” (2004).

The structures appear in SMILES notation.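 These data come from cells grown in 96-well plates and exposed to compound for 48 hours at five concentrations. GI50 = concentration required for 50% inhibition of growth.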 Calls of active or inactive are those of the source. No stated cut-off is given here; in the data, active = GI50 up to about 1.1 µM and inactive = higher.

Test systems include OVCAR-5; M14; T47D; COLO 205; KM12; 786-0; SW-620; OVCAR-8; HCC 2998; MDA-MB-435; MCF7; UACC-257; SNB-75; SF-268; MDA-N; RPMI-8226; SNB-19; TK-10; SK-MEL-28; Hs-578T.
What all share (assay): inhibition of tumour cell growth, NCI panel, 48 h

In the case of `C=C1CCOC2(C(O)C(C)(O)CO)NC(=O)C1(O)NC2=O` (stereo not given), the GI50 in the assay on OVCAR-5, in the assay with M14, in the assay on T47D, in the assay on COLO 205, in the assay with KM12 and with 786-0 was > 100 µM (inactive) each time. Also, the GI50 with SW-620, with OVCAR-8, in the assay on HCC 2998, with MDA-MB-435, in the assay with MCF7 and with UACC-257 was > 100 µM (inactive) in each case. In addition, the GI50 in the assay with SNB-75, in the assay with SF-268, in the assay with MDA-N, with RPMI-8226, with SNB-19 and with TK-10 was > 100 µM (inactive) in each case. In addition, the GI50 in the assay with SK-MEL-28 and in the assay on Hs-578T was > 100 µM (inactive) each time.

Consider `CC(C(N)C(=O)NC(C(=O)O)C1OC(n2ccc(=O)[nH]c2=O)C(O)C1O)C(O)c1ccc(O)cn1` (stereo not given), for which the GI50 in the assay on OVCAR-5, in the assay on M14, with T47D, in the assay with COLO 205, in the assay with KM12 and in the assay on 786-0 was > 100 µM (inactive) in each case. Besides, the GI50 in the assay with SW-620, with OVCAR-8, with HCC 2998, in the assay with MDA-MB-435, in the assay on MCF7 and in the assay on UACC-257 was > 100 µM (inactive) throughout. In addition, the GI50 in the assay on SNB-75, in the assay on SF-268, with MDA-N, with RPMI-8226, in the assay on SNB-19 and with TK-10 was > 100 µM (inactive) throughout. Moreover, the GI50 with SK-MEL-28 and in the assay on Hs-578T was > 100 µM (inactive) throughout.

As for `COC(=O)Cc1ccc2c(cnn2-c2ccccc2)c1OC`, the GI50 in the assay with OVCAR-5, in the assay with M14, in the assay on T47D, in the assay with COLO 205, in the assay on KM12 and in the assay with 786-0 was > 10 µM (inactive) in each case. Besides, the GI50 in the assay with SW-620, in the assay on OVCAR-8, in the assay on HCC 2998, in the assay on MDA-MB-435, in the assay on MCF7 and with UACC-257 was > 10 µM (inactive) throughout. Besides, the GI50 in the assay on SNB-75, in the assay with SF-268, in the assay with MDA-N, in the assay with RPMI-8226, in the assay with SNB-19 and in the assay with TK-10 was > 10 µM (inactive) in each case. Further, the GI50 with SK-MEL-28 and in the assay on Hs-578T was > 10 µM (inactive) in each case.

`COC(=O)[C@]1(NC(=O)c2ccccc2)C[C@H]1C=O`: the GI50 with OVCAR-5 was > 100 µM (inactive); in the assay on M14, > 100 µM (inactive); in the assay with T47D, > 100 µM (inactive); in the assay with COLO 205 it was > 100 µM (inactive); with KM12 it was > 61.5 µM (inactive); in the assay on 786-0 it was > 100 µM (inactive). The GI50 in the assay on SW-620 is > 100 µM (inactive); with OVCAR-8 it was > 100 µM (inactive); in the assay with HCC 2998 it was 57.7 µM (inactive); with MDA-MB-435, > 100 µM (inactive); with MCF7 it was > 100 µM (inactive); with UACC-257, > 100 µM (inactive). Also, the GI50 is > 42.9 µM (inactive) with SNB-75; > 84.5 µM (inactive) in the assay with SF-268; > 100 µM (inactive) in the assay with MDA-N; > 100 µM (inactive) with RPMI-8226; > 100 µM (inactive) in the assay on SNB-19; > 100 µM (inactive) with TK-10. Moreover, the values for the GI50 with SK-MEL-28 and in the assay on Hs-578T were > 100 µM (inactive) and > 55.5 µM (inactive), respectively.

As for `CCOC(=O)C#Cc1ccc([N+](=O)[O-])cc1`, the GI50 with OVCAR-5 is 1 µM (active); with M14, 2.15 µM (inactive); in the assay on T47D it was 2.01 µM (inactive); with COLO 205, 1.72 µM (inactive); in the assay on KM12, 1.82 µM (inactive); with 786-0 it was 1.55 µM (inactive). Also, the GI50 is 2.28 µM (inactive) in the assay with SW-620; 2.37 µM (inactive) in the assay with OVCAR-8; 14.8 µM (inactive) in the assay with HCC 2998; 3.44 µM (inactive) in the assay with MDA-MB-435; 1.24 µM (inactive) in the assay with MCF7; 3.32 µM (inactive) in the assay with UACC-257. Besides, the GI50 in the assay with SNB-75 is 2.24 µM (inactive); with SF-268 it was 2.52 µM (inactive); with MDA-N it was 3.19 µM (inactive); in the assay with RPMI-8226, 1.98 µM (inactive); with SNB-19, 13 µM (inactive); in the assay with TK-10 it was 14.3 µM (inactive). For the same compound, the GI50 is 5.52 µM (inactive) in the assay on SK-MEL-28 and 4.18 µM (inactive) in the assay with Hs-578T.

Turning to `O=C1/C(=C/c2ccc(O)cc2)Oc2ccccc21`, the GI50 in the assay with OVCAR-5 is > 100 µM (inactive); in the assay with M14, > 100 µM (inactive); with T47D, > 100 µM (inactive); with COLO 205 it was > 100 µM (inactive); with KM12, 90.6 µM (inactive); in the assay with 786-0 it was > 100 µM (inactive). Besides, the GI50 is > 100 µM (inactive) in the assay with SW-620; > 100 µM (inactive) with OVCAR-8; > 100 µM (inactive) in the assay on HCC 2998; 83.9 µM (inactive) in the assay with MDA-MB-435; > 100 µM (inactive) in the assay on MCF7; > 100 µM (inactive) in the assay with UACC-257. Besides, the GI50 in the assay on SNB-75 is 60.1 µM (inactive); in the assay on SF-268 it was > 100 µM (inactive); in the assay on MDA-N it was > 100 µM (inactive); with RPMI-8226, 59.2 µM (inactive); in the assay on SNB-19, > 100 µM (inactive); in the assay with TK-10, > 100 µM (inactive). The GI50 in the assay on SK-MEL-28 and in the assay on Hs-578T was > 100 µM (inactive) in each case.

As for `CC1=C(CO)C2=C(C)C3(CC3)[C@@](C)(O)C(=O)C2=C1` [IROFULVEN], the GI50 with OVCAR-5 is 0.174 µM (active); with M14, 0.258 µM (active); in the assay on T47D it was 0.218 µM (active); in the assay with COLO 205, 0.166 µM (active); with KM12, 0.697 µM (active); with 786-0 it was 0.199 µM (active). The GI50 in the assay with SW-620 is 0.614 µM (active); with OVCAR-8 it was 0.219 µM (active); in the assay with HCC 2998 it was 0.153 µM (active); with MDA-MB-435, 1.47 µM (inactive); in the assay with MCF7, 0.242 µM (active); with UACC-257, 0.227 µM (active). The GI50 was 0.191 µM (active) in the assay with SNB-75; 0.234 µM (active) in the assay on SF-268; 1.04 µM (active) in the assay with MDA-N; 34.1 µM (inactive) with RPMI-8226; 0.348 µM (active) with SNB-19; 0.279 µM (active) with TK-10. The results for the GI50 in the assay on SK-MEL-28 and in the assay with Hs-578T were 0.582 µM (active) and 0.29 µM (active), respectively.

Take `O=C1C(O)=C(CCCCCCCCC2CCCCC2)C(=O)c2ccccc21` [MENOCTONE]: the GI50 is 17 µM (inactive) in the assay with OVCAR-5; 10.8 µM (inactive) in the assay with M14; 5.5 µM (inactive) in the assay on T47D; 8.45 µM (inactive) with COLO 205; 8.49 µM (inactive) in the assay with KM12; 6.01 µM (inactive) with 786-0. Also, the GI50 in the assay on SW-620 is 4.23 µM (inactive); in the assay with OVCAR-8, 8.67 µM (inactive); in the assay on HCC 2998, 8.69 µM (inactive); in the assay on MDA-MB-435, 4.99 µM (inactive); in the assay on MCF7 it was 6.41 µM (inactive); in the assay on UACC-257, 6.28 µM (inactive). Besides, the GI50 with SNB-75 is 10.6 µM (inactive); in the assay on SF-268, 7.03 µM (inactive); in the assay with MDA-N, 4.75 µM (inactive); with RPMI-8226 it was 6.15 µM (inactive); in the assay with SNB-19, 9.86 µM (inactive); in the assay with TK-10, 14.7 µM (inactive). The GI50 with SK-MEL-28 was 11.4 µM (inactive); with Hs-578T it was 12.4 µM (inactive).
